This data set in a line: Human HepG2 cell viability assay in 384 well format. Details: dose 125 nL, time 70.5 hour; cytotoxicity at 70.5 h: concentration not given beside the values. The data set is classed as toxicity, cell-based. The settings on record: HepG2 cells, read-out: Inhibition.

Regarding `CCn1ccnc1CN(C)Cc1nc(Cc2cccc(F)c2)no1`, the cytotoxicity at 70.5 h is 11.1%.
With `CCCNC(=O)N1CCCC2(CCC(=O)N(CCc3c[nH]cn3)C2)C1` (stereo not drawn) the figure was -1.2%; with `CCC(CO)N(Cc1ccco1)C(=O)c1ccccc1SC` (stereo not drawn), 10.8%.
`Cc1nc2c(c(N3CCCOCC3)n1)CCN(C(=O)N1CCCC1)CC2`: the cytotoxicity at 70.5 h was -4.22%.
With `CC(=O)c1ccc(CN2CC(Oc3ccccc3C)C2)cc1` the figure was -1.63%; with `CNC(=O)c1cc(NC(=O)NCC2CCS(=O)(=O)C2)ccc1OC` (stereo not drawn), 19.9%.
In the case of `Cn1ncc2c(N3CC(N4CCCCC4)C3)nc(C3CCCC3)nc21` it was -4.55%; in that of `COCCC(=O)N1CCC2(CCCN(Cc3cc(OC)ccc3F)C2)C1` (stereo not drawn), -6.14%; in that of `O=C(c1ccc(S(=O)(=O)NCc2ccncc2)cc1)N1CCNCC1`, -6.98%.
In the case of `CC(C)(O)C1CCCN(C(=O)Nc2nc(-c3ccccc3)ns2)C1` (stereo not drawn) it was -3.5%; in that of `CC1=NC2(CCN(CC(C)c3ccccc3)CC2)C(=O)N1` (stereo not drawn), -8.98%.
Turning to `CC(=O)c1ccc(-c2cnn(CC(=O)Nc3cc(C)nn3C)c2)nc1`, the cytotoxicity at 70.5 h was -13%.
For `CCCc1nc(N2CCCC(CCOC)C2)c2cnn(C)c2n1` (stereo not drawn), the cytotoxicity at 70.5 h was found to be 15.9%.
Take `CNC(=O)[C@@H]1C[C@@H](N)CN1Cc1cc2cc(C)cc(C)c2[nH]c1=O`: the cytotoxicity at 70.5 h is -12%.
In the case of `C[C@@H]1CN(C(=O)CCc2cnn(C)c2)C[C@@]1(O)C1CCC1` it was -5.7%; in that of `CC(C)c1cc(N2CCC(N(C)C)C2)n2nccc2n1` (stereo not drawn), -8.85%; in that of `CCC(CO)N(Cc1cccnc1)C(=O)c1ccncc1F` (stereo not drawn), -9.31%.
In the case of `COc1ccc(CN2CC(=O)N(c3ccc(C)cc3)CC2C)cc1O` (stereo not drawn), the cytotoxicity at 70.5 h is -2.16%.
With `Cc1ccc(-c2cc(C(=O)NCCCc3csc(N)n3)[nH]n2)s1`, the cytotoxicity at 70.5 h was -3.12%.
Take `CS(=O)(=O)NC1CCN(C(=O)c2cnc(-c3cccnc3)nc2)CC1`: the cytotoxicity at 70.5 h was -7.35%.
In the case of `COc1cccc(-c2cc(NCCN(C)C)nc3[nH]ccc23)n1` it was -6.53%; in that of `CSCC(=O)N1CCc2c(cnc(C)c2-c2noc(-c3ccco3)n2)C1`, -17%; in that of `O=C(c1ccc(=O)[nH]c1)N1CCCC1c1nc2cc(F)ccc2[nH]1` (stereo not drawn), -3.97%.
With `O=C(c1coc2ccccc12)N1CCCC(O)(CO)CC1` (stereo not drawn) the figure was -7.66%.
In the case of `COc1c(C)cnc(CN(C)C(=O)c2ccc(C3CCCO3)s2)c1C` (stereo not drawn) it was -6.12%; in that of `Cn1ccnc1SCCNc1cc(N2CCOCC2)ncn1`, -19.6%.
Turning to `Cc1cccc(N2CCC(N3CCC4(CCCNC4=O)C3)CC2)c1C` (stereo not drawn), the cytotoxicity at 70.5 h was 10.3%.
With `COCCC(=O)N1CCC2(CC1)CC(c1ccccc1)CN(C1CC1)C2` (stereo not drawn) the figure was 0.742%; with `Cc1noc(C)c1CN1CCn2nc(CCC(=O)N3CCCC3)cc2C1`, -2.3%; with `Cc1cc(N2CCCC3(CN(C)C(=O)O3)C2)c2cc3c(cc2n1)OCO3` (stereo not drawn), 19.1%.
In the case of `CCCn1c(C)c(CC(=O)NCCOC)c2c1CC(C)(C)CC2=O` it was -0.0334%.
With `CCC(CO)N(Cc1cccs1)C(=O)CNS(=O)(=O)c1cccs1` (stereo not drawn) the figure was -4.61%.
As to `CCN1CC(C(=O)N2CCN(CCn3cccc3)CC2)CC1=O` (stereo not drawn), the cytotoxicity at 70.5 h was determined as 18.1%.
With `CC[C@H]1CN(C(=O)c2cccc(-n3cnnc3)n2)CC[C@@]1(C)O` the figure was 19.7%; with `Cc1nc(NCC(O)CN2CCCCCC2)c2c(C)noc2n1` (stereo not drawn), -5.74%.
With `O=C(CCn1cc(Cl)cn1)N1CCCC(O)(CO)CC1` (stereo not drawn) the figure was -4.26%; with `Cc1cnc(C(=O)N2CCNCC2C(=O)NCc2ccncc2)cn1` (stereo not drawn), 3.98%; with `Cc1ccccc1OCCC(=O)N1CCc2nc(C)n(C)c(=O)c2CC1`, -8.53%.
Regarding `COc1ccc(Cc2ncc3c(n2)CN(C(=O)CN(C)C)C3)cc1`, the cytotoxicity at 70.5 h was -8%.
In the case of `Cc1cccc(C(C)C)c1NC(=O)CN(C)C(C)c1nccs1` (stereo not drawn) it was -9.73%; in that of `CN(C)C(=O)Cc1ccc(-c2cccc3c2CCNC3)cc1`, -21.8%; in that of `CCCNc1ncc(CN2CCOC(Cc3cccc(F)c3)C2)cn1` (stereo not drawn), -10.7%.
In the case of `NC(=O)CN1CC2(CCC1=O)CCN(Cc1cc(F)cc(F)c1)CC2` it was -0.945%; in that of `CCN(Cc1cccc(C(=O)Nc2ncc(C)s2)c1)[C@H]1COC[C@@H]1O`, -3.78%.
As for `CCCn1ncc(C2CC(=O)NCc3nc4cc(C)ccn4c32)c1C` (stereo not drawn), the cytotoxicity at 70.5 h is 2.43%.
As for `CCc1nn(C)c(Cl)c1CN1CCCC2(C1)CN(C)C(=O)O2` (stereo not drawn), the cytotoxicity at 70.5 h was -11.8%.
With `O=C(COc1cccc(F)c1)N1C[C@H](CO)C[C@H](CN2CCCC2)C1`, the cytotoxicity at 70.5 h came to 6.4%.
Take `Cc1cc(C)n(CCCN(C)C(=O)CN2CC3(CCNCC3)OC2=O)n1`: the cytotoxicity at 70.5 h was -8.19%.
On to `Cc1ccsc1CN(Cc1ccccn1)CC(O)CO` (stereo not drawn), for which the cytotoxicity at 70.5 h is -1.67%.
With `COc1cnc(N2CCC(c3ncc[nH]3)CC2)nc1` the figure was 17.8%.
With `O=C(Nc1ccccc1)N1CCC(N2Cc3ncccc3C2=O)CC1` the figure was -8.29%; with `CCc1ccccc1C(=O)N1C[C@@H](CN2CCOCC2)[C@@H](CO)C1`, 27.9%; with `Cn1ncc(N2CCC(CNC3CC(C)(C)CC(C)(C)C3)C2)cc1=O` (stereo not drawn), 7.5%.
With `CN(CCCc1cnn(C)c1)Cc1cc2n(n1)CCCNC2`, the cytotoxicity at 70.5 h was -14.1%.
`CC(C)C1CN(Cc2c[nH]cn2)CCCN1CC1CC1` (stereo not drawn): the cytotoxicity at 70.5 h was -17.8%.
With `OCC(O)CN(CCN1CCOCC1)Cc1ccco1` (stereo not drawn), the cytotoxicity at 70.5 h was -8.67%.
Take `Cc1nnc(N2CCN(C)C3(CCC(=O)N(CCO)CC3)C2)s1` (stereo not drawn): the cytotoxicity at 70.5 h is 22.1%.
In the case of `Fc1ccccc1CN1CCCC2(CCN(c3ncccn3)C2)C1` (stereo not drawn) it was -9.02%; in that of `OCC1COCCN(Cc2cc(C3CCCCC3)no2)C1` (stereo not drawn), -9.08%; in that of `Cc1ccc2nc(C(=O)N3CC(n4nc(C)cc4C)C3)cn2c1`, -9.46%.
With `Cc1nc(N2CCC(O)(c3ccccc3)CC2)c2c(C)nn(C)c2n1` the figure was -3.33%; with `CC(C)NC1CCCc2nc(-c3ccccc3)ncc21` (stereo not drawn), -14.3%.
In the case of `O=C1NCCN(CC2CCCCC2)C1CC(=O)N1CCc2n[nH]cc2C1` (stereo not drawn) it was -1.96%.
For the compound `COc1ccc(C(=O)N2C[C@@H](O)[C@H](NCc3cnc(C)cn3)C2)cc1`, the cytotoxicity at 70.5 h was found to be 22.1%.
In the case of `CCn1c(C)nnc1SCCNC(=O)c1cnc(N(C)C)nc1C` it was -2.09%; in that of `COc1cccc(CCC2CCCN(C(=O)c3ccc(OC)o3)C2)c1` (stereo not drawn), -3.25%.
For `COc1ccccc1OC1(C(=O)O)CCN(c2nc(C)cnc2C)CC1`, the cytotoxicity at 70.5 h is -6.64%.
Take `CN(Cc1cc(C2CC2)[nH]n1)C(=O)c1ccccc1C1CCNC1` (stereo not drawn): the cytotoxicity at 70.5 h was -3.91%.
In the case of `NCC1Cc2cc(-c3cnccn3)cc(Cl)c2O1` (stereo not drawn) it was 0.342%; in that of `CCCN1CCCC2(CCN(S(=O)(=O)c3cc(C)nn3CC)C2)C1=O` (stereo not drawn), -21.6%.
With `COCC1CCN(C(=O)c2cn(Cc3ccccc3F)nn2)CC1` the figure was 5.43%; with `CCCN1CCCn2nc(CNC(=O)CC3CCS(=O)(=O)C3)cc2C1` (stereo not drawn), -3.24%; with `Cc1cc2nc(-c3ccccc3)cc(NCC3CCCOC3)n2n1` (stereo not drawn), 0.476%.
In the case of `CN(C)C(=O)NCC(=O)N(C)Cc1cc(-c2ccccc2)no1` it was 22%; in that of `CCC(C)CN1CCC(n2cc(C3CCCC3)nn2)CC1` (stereo not drawn), 0.72%; in that of `CCc1cc(N[C@H]2CC[C@@H](N)CC2)n2nc(C)c(C)c2n1`, -7.71%.
On to `COc1cccc(Cn2cc(C3=CCN(CC(=O)N(C)C)CC3)cn2)c1`, for which the cytotoxicity at 70.5 h was -16.4%.
With `CC(C)(C)c1ccc(-c2n[nH]c3c2CN(CC2CCOC2)CC3)cc1` (stereo not drawn), the cytotoxicity at 70.5 h is -12%.
Consider `Cc1cc(CN2CCC(CNC(=O)CN3CCCCCC3)C2)[nH]n1` (stereo not drawn), for which the cytotoxicity at 70.5 h came out at 14.2%.
With `CCCNC(=O)c1ccc(S(=O)(=O)NC2(COC)CCCC2)cc1` the figure was -5.28%; with `Cn1ccc2c(-c3cc(N4CCOCC4)ncn3)ccnc21`, -6.11%.
In the case of `CN(C)C(=O)CN1C(=O)[C@H]2CC[C@@H]1CN(Cc1ccccc1C#N)C2` it was -4.2%; in that of `COCCN1CCC(CN(CC2CCCO2)C(=O)CNC(C)=O)CC1` (stereo not drawn), -1.99%.
With `CCCN(Cc1nc2ccccc2[nH]1)Cc1ccccc1OC` the figure was -4%.
Take `CCC[C@@H]1CN(C(=O)CCc2ccco2)C[C@H]1NS(C)(=O)=O`: the cytotoxicity at 70.5 h worked out at 29%.
With `CC(C)=CCn1ncc(N2CCCCC2)cc1=O` the figure was -3.13%.
In the case of `Nc1nc2c(c(N3CCCC(c4nnc5ccccn45)C3)n1)CCNC2` (stereo not drawn) it was -2.11%; in that of `CCc1oc(C(=O)N(C)Cc2nonc2C)cc1CN(CC)CC`, -16.6%; in that of `CCN1CC(C(=O)N2CCN(c3nsc4ccccc34)CC2)CCC1=O` (stereo not drawn), 19.6%.
In the case of `COc1cccc(C(C(=O)O)N2CCSCC2)c1F` (stereo not drawn) it was 13%; in that of `Cc1nc(N2CCC(C(O)c3nccn3C)CC2)c2c(C)noc2n1` (stereo not drawn), 20.2%.
On to `Cc1c(-c2cnn(C)c2)nc(N)c(C#N)c1-c1ccc(CO)o1`, for which the cytotoxicity at 70.5 h is 2.44%.
With `CC1(C)CNC(=O)c2nc(CCCN3CCCC3)[nH]c2C1` the figure was -8.44%; with `CC(C)[C@H]1CN(c2ccnc(N)n2)C[C@@H]1NC(=O)C1(C#N)CCOCC1`, -9.5%; with `CC(C)c1nnsc1CNC(=O)C1CCCN(C(=O)N(C)C)C1` (stereo not drawn), -11.2%.
Turning to `CN(Cc1noc2c1CCCC2)C(=O)C1CCOc2ccccc2C1` (stereo not drawn), the cytotoxicity at 70.5 h is -3.46%.
As for `CCc1cc(N(C)Cc2noc(C(C)C)n2)nc(N2CCOCC2)n1`, the cytotoxicity at 70.5 h is -13.5%.
With `CCCC1(CO)CCCN(C(=O)CN2CCN(CC)CC2)C1` (stereo not drawn) the figure was -24.3%.

(Values after ChEMBL document CHEMBL3507680, “University of Dundee, Gates Library screen for HepG2 cell viability”.)
